The values that follow come from publication PMC11023993, “Piperine, quercetin, and curcumin identified as promising natural products for topical treatment of cutaneous leishmaniasis” (Parasitology Research, 2024).

Like-named read-outs stand apart in the source and are kept apart here.

In series [1] the test system is L. braziliensis-induced cutaneous leishmaniasis ulcers. In words: Histopathological analysis (H-E) of healed ulcers from treated hamsters. Format: in vivo, golden hamsters (Mesocricetus auratus). Also noted: key to Dermis: oedema (grade) / Dermis: granulomatous inflammation (grade) / Epidermis: orthokeratotic hyperkeratosis (grade) / Epidermis: spongiosis (grade) / Epidermis: ulcer (grade) / Dermis: neovascularization (grade) / Dermis: fibroplasia (grade) / Dermis: leukocytic infiltrate (grade): 0, absent; 1, mild; 2, mild to moderate; 3, moderate; 4, moderate to severe; 5, severe. The note with it: healed ulcer after topical treatment. The method, then:
The changes were analyzed under a standard optical microscope.

Series [2] deals with intracellular amastigotes of L. braziliensis. The series is described as follows: In vitro leishmanicidal activity against intracellular amastigotes in infected U-937 macrophages (flow cytometry). Format: cell-based, Leishmania braziliensis. To be noted: for SI (Selectivity Index = LC50/EC50): LC50 U-937 / EC50 L. braziliensis amastigotes; for EC50: Leishmania braziliensis; for Leishmanicidal activity: class by EC50 on intracellular amastigotes of L. braziliensis. The method, then:
Infective L. braziliensis (MHOM/CO/88/UA301-eGFP) (Pulido et al. [2012]) were cultured in Novy-MacNeal-Nicolle (NNN) biphasic medium at 26 °C for 3 passages maximum. U-937 cells, prepared as described in the previous section, were adjusted to approximately 3 × 10^5 cells per mL of supplemented RPMI 1640 medium containing […] of PMA to induce cell adherence. One mL was dispensed into each well of a 24-well plate and platters were incubated at 37 °C in % CO2, 95% humidity atmosphere for 72 h. Then, adherent cells were infected with fluorescent promastigotes of L. braziliensis in a 15:1 parasite to cell ratio. Plates were incubated again at 34 °C and % CO2, 95% humidity atmosphere. After 24 h, non-phagocytosed parasites were washed by pipetting phosphate buffered solution (PBS) in the plate at room temperature and 500 µL of fresh complete RPMI 1640 medium was added. Then, 500 µL of each serial dilution of QUE, PIP, CUR, and amphotericin B was added to each well and plates were incubated at 34 °C with % CO2, 95% humidity atmosphere. The EC50, the median effective concentration to induce […] killing of the intracellular amastigotes in infected cells, was measured by Flow cytometry at 488 nm of excitation and 525 nm of emission. After 48 h of incubation, cells were harvested with cold dissociation buffer (1x PBS with 2% EDTA) and the harvested cells were washed with buffer (1 × PBS with 2% FBS), and results were analyzed by FlowJo 10. The EC50 was determined with a non-lineal regression using Prism GraphPad 10.
(§1) The LC50 and the EC50 were calculated by Probit analysis using GraphPad Prism 10 (San Diego, CA, USA). Both cytotoxicity and leishmanicidal activity were defined by ranges of values of LC50 and EC50 in terms of high, moderate, or low as follows: high cytotoxicity for LC50 values < 100 µM, moderate cytotoxicity for LC50 values > 100 µM but < 200 µM, and low cytotoxicity for LC50 values > 200 µM. […] In addition, the cytotoxicity in U937 macrophages was correlated with the leishmanicidal activity by calculating the Selectivity Index (SI), using the equation: SI = LC50/EC50 (Indrayanto et al. [2021]).
For orientation: Flow cytometry measures light scatter and fluorescence of single cells or particles in a stream.

Series [3] is described as follows: MTT cytotoxicity assay in uninfected U-937 macrophages. To be noted: human. The method, then: (§2) U-937 (CRL-1593.2™) macrophages (ATCC, Manassas, VA, USA) were cultured in RPMI-1640 medium supplemented with 10% of FBS and incubated at 37 °C in 5% CO2, 95% humidity atmosphere. U-937 cells in the exponential growth phase were recovered, and washed by centrifugation at 1800 rpm for 10 min at room temperature; the pellet was then resuspended in supplemented RPMI 1640 medium and counted in a Neubauer chamber. The number was adjusted to 1 × 10^6 cells per mL and 100 µL was dispensed into each well of a 96-well plate. Then, another 100 µL of each serial dilution of QUE, PIP, CUR, doxorubicin, and amphotericin B was added to each well by triplicate and plates were incubated at 37 °C 5% CO2, 95% humidity atmosphere for 48 h.
(§3) The MTT solution is then added to the treated cells, where the yellow MTT is reduced to purple formazan by a variety of mitochondrial and cytosolic enzymes that are operational in viable cells. After 3 h of incubation with MTT, the formazan precipitates. Consequently, the growing medium was removed, the formazan was dissolved in DMSO, and the absorbance of the solution was measured at 570 nm using a microplate reader spectrophotometer (Varioskan Flash, Thermo Fisher Scientific).
(§4) Cells exposed to the standard cytotoxic drug doxorubicin were used as an internal control for toxicity (positive control) while cells incubated in the absence of any compound or drug were used as a control for viability (negative control). A solution of 0.5% DMSO was used as a blank solution. Non-specific absorbance was corrected by subtracting absorbance (OD) of the blank. Determinations were done by triplicate in at least two independent experiments.
(§5) The OD of viable cells that remained after treatment was compared to the OD of control cells that were not exposed to the drug. The LC50 (median lethal concentration) values and their statistical errors were calculated based on triplicates of the measurement in the independent assays. The LC50 values were determined by non-linear regression using Prism GraphPad 10.
as §1
Background: Tetrazolium dyes change colour on reduction, which living cells bring about.

For series [4], the system named is L. braziliensis. The text has this:
Golden hamsters (Mesocricetus auratus) were purchased from Charles River Laboratories (Wilmington MA, USA) and bred under specific pathogen-free conditions at the animal facility unit of the Universidad de Antioquia in Medellín, Colombia. Six- to eight-week-old, male, and female hamsters were used for the experiments. Animal experimentation protocols including handling of the animals, sample collection, and euthanasia were done in compliance of the Center for Diseases Control and Prevention guidelines for Safe Work Practices in Human and Animal Medical Diagnostic Laboratories and ARRIVE guidelines (Percie du Sert et al. [2020b]; Khairani et al. [2022]) and approved by the Institutional Ethical Committee for animal experimentation (Act No. 152 of June 01, 2023) (Percie du Sert et al. [2020a]; Khairani et al. [2022]).
Hamsters were anesthetized with ketamine (80 mg/kg, i.p.) and xylazine (15 mg/Kg) before infection and then, ∼1 × 10^8 promastigotes in stationary phase (6 days-old growth) were inoculated into the dorsum dermis (Robledo et al. [2012]). When hamsters developed ulcers larger than 12.5 mm^2, hamsters were randomly distributed into 4 groups (n = 6, each): (1) group treated with QUE (1 mg/day), (2) group treated with PIP (2.5 mg/day), (3) group treated with CUR (1.5 mg/day), (4) group treated with meglumine antimoniate (treatment control group, 200 µg/mL, intralesional). No vehicle control group was included in the present study because castor oil additive is a nonionic surfactant commonly used as an excipient in pharmaceutical formulations, particularly in solubilizing poorly water-soluble drugs. It is widely used as an ingredient in cosmetics for its conditioning properties, based on occlusive action, reducing water loss, and having a nourishing effect on the skin, hair, and nails (Marwat et al. [2017]; Khairani et al. [2022]).
Hamsters were treated daily with 40 µL of the corresponding formulation for 2 weeks, applying it directly over the lesion, while hamsters treated with meglumine antimoniate received treatment three times per week for 4 weeks. Lesion area was measured every week for 90 days with an electronic digital caliper. The body weight gain or loss was supervised every 2 weeks during the study. At the end of the study, hamsters were euthanized with an i.p. injection of ketamine (600 mg/kg) and xylazine (30 mg/kg). The experiments were carried out under normal laboratory lighting conditions. After necropsy, biopsies from healed and unhealed ulcers were removed and fixed in 10% buffered formalin, processed, and stained with hematoxylin–eosin (H-E) stain for histopathology analysis. The changes were analyzed under a standard optical microscope.

Series [5] concerns L. amazonensis amastigotes. Also noted: method as in Ferreira et al. [2011]. To be noted: ref Ferreira et al. [2011], read-out: EC50 for the amastigote stage; cited from earlier work.
For series [6], the system named is macrophages. Also noted: method as in Ferreira et al. [2011]. To be noted: ref Ferreira et al. [2011]; cited from earlier work.
Series [7] deals with U-937 cells. In words: MTT cytotoxicity assay in uninfected U-937 macrophages. To be noted: class by LC50 in U-937 macrophages. The method, then: as §2, §3, §4, §5, §1
Where [8] appears, read: intracellular amastigotes of L. braziliensis in U-937 macrophages, 48 h, read-out: EC50 (Median Effective Concentration).
Setting [9] is: topical in castor oil daily for 15 days, QUE 1 mg/day, CUR 1.5 mg/day, PIP 2.5 mg/day, n = 6, followed 90 days.
The mark [10] stands for this setting: intralesional 200 µg/mL three times per week for 4 weeks, n = 6.
Setting [11] is: intralesional 200 µg/mL, individual hamster.

Regarding `COc1cc(/C=C/C(=O)CC(=O)/C=C/c2ccc(O)c(OC)c2)ccc1O` [Curcumin, curcumin], in series [1], the “Dermis: fibroplasia (grade)” value is 2, the “Dermis: granulomatous inflammation (grade)” value is reported as 0, the “Dermis: leukocytic infiltrate (grade)” value was 2 and the “Dermis: neovascularization (grade)” value is 4. Also, in series [1], the “Dermis: oedema (grade)” value turned out to be 1, the “Epidermis: orthokeratotic hyperkeratosis (grade)” value was 2, the “Epidermis: spongiosis (grade)” value was determined as 1 and the “Epidermis: ulcer (grade)” value worked out at 0. Moreover, in series [2], the “SI (Selectivity Index = LC50/EC50)” value is on record as greater than 17.4 and the Leishmanicidal activity entry was “High (high activity corresponds to EC50 values < 50 µM)”. Also, in series [2] (listed as CUR), the “SI (Selectivity Index = LC50/EC50)” value is “exceeds 10”. In addition, the EC50 in series [2] (U-937, read-out: in vitro antileishmanial activity (EC50 in mass units)) is 11.4 ± 0.1 µg/mL. The EC50 in series [2] (setting [8]) is 30.9 ± 0.3 µM. The 50% cytotoxic concentration (CC50) – broadly, the concentration giving 50% cytotoxicity – at 48 h in series [3] is greater than 543 µM. Further, the “number of hamsters cured” value in series [4] (topical 1.5 mg/day for 15 days, n = 6) is listed as 5 hamsters. Moreover, the treatment failures result in series [4] (topical daily for 15 days, n = 6) is on record as “one hamster failed treatment”. The “therapeutic response (hamsters cured)” value in series [4] (setting [9]) is on record as 83%.

Turning to `O=C(/C=C/C=C/c1ccc2c(c1)OCO2)N1CCCCC1` [Piperine, piperine], in series [5], the EC50 was 28 µM. Also, in series [1], the “Dermis: fibroplasia (grade)” value amounted to 2, the “Dermis: granulomatous inflammation (grade)” value was 0, the “Dermis: leukocytic infiltrate (grade)” value was found to be 2 and the “Dermis: neovascularization (grade)” value is on record as 2. Moreover, in series [1], the “Dermis: oedema (grade)” value worked out at 1, the “Epidermis: orthokeratotic hyperkeratosis (grade)” value amounted to 2, the “Epidermis: spongiosis (grade)” value is 2 and the “Epidermis: ulcer (grade)” value was 0. Further, the toxicity towards macrophages result in series [6] is reported as “non-toxicity”. Also, in series [2], the “SI (Selectivity Index = LC50/EC50)” value is greater than 80 and the Leishmanicidal activity entry was “High (high activity corresponds to EC50 values < 50 µM)”. In addition, the EC50 in series [2] (U-937, amastigote stage of L. braziliensis, read-out: in vitro antileishmanial activity (EC50 in mass units)) amounted to 2.5 ± 0.4 µg/mL. For the same molecule, the EC50 in series [2] (U-937, read-out: effective concentration (in vitro leishmanicidal activity)) came out at 8 µM. Also, the EC50 in series [2] (setting [8]) amounted to 8.76 ± 1.4 µM. For the same molecule, the Cytotoxicity entry in series [7] is given as “Low (low cytotoxicity for LC50 values > 200 µM)”. Also, the half-maximal cytotoxic concentration (CC50) at 48 h in series [3] was greater than 701 µM. The “therapeutic response (hamsters cured)” value in series [4] (setting [9]) turned out to be 67%.

`C[C@@H]1[C@H](O)[C@@H](C)/C=C/C=C/C=C/C=C/C=C/C=C/C=C/[C@H](O[C@@H]2O[C@H](C)[C@@H](O)[C@H](N)[C@@H]2O)C[C@@H]2O[C@](O)(C[C@@H](O)C[C@@H](O)[C@H](O)CC[C@@H](O)C[C@@H](O)CC(=O)O[C@H]1C)C[C@H](O)[C@H]2C(=O)O` [AMB, Amphotericin B, reference compound]: in series [2], the “SI (Selectivity Index = LC50/EC50)” value turned out to be 172.7 and the Leishmanicidal activity entry is reported as “High (high activity corresponds to EC50 values < 50 µM)”. Further, the EC50 in series [2] (setting [8]) stood at 0.32 ± 0.01 µM. For the same molecule, half-maximal cytotoxicity in series [3] (CC50 at 48 h) was put at 56.1 ± 5.8 µM.

`COc1cccc2c1C(=O)c1c(O)c3c(c(O)c1C2=O)C[C@@](O)(C(=O)CO)C[C@@H]3O[C@H]1C[C@H](N)[C@H](O)[C@H](C)O1` [DOXO, Doxorubicin, reference compound] registered a CC50 at 48 h in series [3] of 1.47 ± 0.06 µM.

Regarding “meglumine antimoniate [reference compound]”, in series [4] (setting [10]), the “number of hamsters cured” value turned out to be 4 hamsters and the “therapeutic response (hamsters cured)” value stood at 67%. Besides, in series [4] (setting [11]), the “increase of lesion in uncured hamster” value is recorded as 80% and the “reduction in the lesion size in uncured hamster” value is reported as 14%.

On to Castor oil, for which the “resolution of CL lesions” value in series [4] (hamster, in vivo) is listed as “has not shown resolution of the lesions”.
